Laboratory results taken from patent US3976663A, “Certain cyclopropane carboxylic acid esters of 2,3-dihyrobenzofuran-3-ols” (The Procter & Gamble Company, priority 1971, dated 1976).
Like-named read-outs stand apart in the source and are kept apart here.

Key:
[1] = test system: Webbing clothes moth larvae; experiment: Insect mortality test, wool fabric dipped in test formulation (Example VI); assay type: in vivo; settings: 0.05 + 0.2 synergist (piperonyl butoxide) % W/V, 7 days
Text: (§1) All test species except the webbing clothes moth larvae were sprayed in the Water's vertical spray tower as described in Example IV. For the fabric tests, a two inch square area of wool fabric was dipped in the test formulations.

houseflies [2] = experiment: Housefly mortality tests, spray tower (Example IV); assay type: in vivo; settings: for % Mortality (24 hr.): 10 second spray; for housefly mortality compared with the chrysanthemates of Table 1: equivalent amount in the test of Example IV
Description: (§2) 3-Coumaranyl chrysanthemate, 5-chloro-3-coumaranyl chrysanthemate, 5-methoxy-3-coumaranyl chrysanthemate, and natural pyrethrum, respectively, were dissolved in acetone and dispersed in distilled water with Triton X-100 emulsifier. The samples were applied for a 10 second period to houseflies retained in a 2 inch × 5 inch diameter screened cage. The spray is applied from the Water's vertical spray tower operating at 10 p.s.i. and discharging about 30 ml. of material per minute through an atomizer. The spray descends through an 8 inch stainless steel cylinder to test insects below the atomizer. The insects were retained in the sprayed cages for mortality observations.

houseflies [3] = experiment: Residual activity against houseflies on treated panels (Example V); assay type: in vivo; settings: 100 milligrams per square foot, one hour exposure
Text: (§3) 3-Coumaranyl chrysanthemate and natural pyrethrum, respectively, were formulated in deodorized kerosene to give a deposit rate of 100 milligrams per square foot of area for residual evaluation against houseflies and 200 and 400 milligrams per square foot of area for residual evaluation against German cockroaches. The formulations were uniformly applied at the rate of 8 milliliters/sq.ft. on unpainted plywood and 3.5 milliliters/sq.ft. on vinyl asbestos with a camel hair brush. Adult insects were exposed to each treated panel for one hour (houseflies) or two hours (cockroaches), transferred to clean cages, and held for mortality counts. The same treated panels were used for re-exposures after the aging period indicated.

11 other insects = experiment: Insect mortality tests, Example VI as a whole; assay type: in vivo
Description: as §2, §1

[4] = Mammalian toxicity, LD50 (rat); settings: in vivo
German cockroaches = experiment: Residual activity against cockroaches on treated panels (Example V); assay type: in vivo; settings: Blattella germanica, 48 h
Text: as §3

Adult stable flies = experiment: Insect mortality test, spray tower (Example VI); assay type: in vivo; settings: 0.05 + 0.2 synergist (piperonyl butoxide) % W/V, 1 day
Description: as §2, §1

Adult mosquito = experiment: Insect mortality test, spray tower (Example VI); assay type: in vivo; settings: 0.05 + 0.2 synergist (piperonyl butoxide) % W/V, 1 day
Description: as §2, §1

[5] = test system: Adult saw toothed grain beetles; experiment: Insect mortality test, spray tower (Example VI); assay type: in vivo; settings: 0.05 + 0.2 synergist (piperonyl butoxide) % W/V, 3 days
Description: as §2, §1

Mexican Bean Beetle = experiment: Insect mortality test, spray tower (Example VI); assay type: in vivo; settings: 0.005 + 0.02 synergist (piperonyl butoxide) % W/V, 2 days
Description: as §2, §1

Mite = experiment: Insect mortality test, spray tower (Example VI); assay type: in vivo; settings: 0.05 + 0.2 synergist (piperonyl butoxide) % W/V, 5 days
Description: as §2, §1

Pea Aphid = experiment: Insect mortality test, spray tower (Example VI); assay type: in vivo; settings: 0.005 + 0.02 synergist (piperonyl butoxide) % W/V, 2 days
Description: as §2, §1

Southern Armyworm = experiment: Insect mortality test, spray tower (Example VI); assay type: in vivo; settings: 0.05 + 0.2 synergist (piperonyl butoxide) % W/V, 2 days
Description: as §2, §1

[6] = test system: Black carpet beetle larvae; experiment: Insect mortality test, spray tower (Example VI); assay type: in vivo; settings: 0.05 + 0.2 synergist (piperonyl butoxide) % W/V, 7 days
Description: as §2, §1

German Cockroach = experiment: Insect mortality test, spray tower (Example VI); assay type: in vivo; settings: 0.05 + 0.2 synergist (piperonyl butoxide) % W/V, 2 days
Description: as §2, §1

Adult rice weevils = experiment: Insect mortality test, spray tower (Example VI); assay type: in vivo; settings: 0.05 + 0.2 synergist (piperonyl butoxide) % W/V, 3 days
Description: as §2, §1

[7] = 0.0025 + 0.025 PB (piperonyl butoxide) % W/V
[8] = Musca domestica, topical, 24 h, read-out: % Mortality (24 hr.)
[9] = 0.005 + 0.05 PB (piperonyl butoxide) % W/V

SMILES: CC(C)=CC1C(C(=O)OC2COc3ccccc32)C1(C)C (racemic) [Example I, (±) cis,trans-3-coumaranyl chrysanthemate]
- % Mortality (days) [1]: 100%
- % Mortality (24 hr.) (houseflies [2]; 0.00125 + 0.0125 PB (piperonyl butoxide) % W/V): 28%
- % Mortality (24 hr.) (houseflies [2]; [7]): 93%
- mortality at 0.00125 % strength (houseflies [2]; [8]): 5%
- mortality at 0.0025 % strength (houseflies [2]; [8]): 6%
- % Mortality (24 hr.) (houseflies [3]; Plywood, age of residue 1 day): 100%
- % Mortality (24 hr.) (houseflies [3]; Plywood, age of residue 3 days): 98%
- % Mortality (24 hr.) (houseflies [3]; Plywood, age of residue 7 days): 83%
- % Mortality (24 hr.) (houseflies [3]; Vinyl, age of residue 1 day): 100%
- % Mortality (24 hr.) (houseflies [3]; Vinyl, age of residue 3 days): 100%
- % Mortality (24 hr.) (houseflies [3]; Vinyl, age of residue 7 days): 59%
- effectiveness against 11 other insects (11 other insects): effective
- LD50 [4]: > 7570 mg/kg
- mortality at 200 mg/sq ft (German cockroaches; read-out: % Mortality (48 hrs.), Plywood, 200 milligrams per sq. ft., age of residue 1 day, two hours exposure): 85%
- mortality at 200 mg/sq ft (German cockroaches; read-out: % Mortality (48 hrs.), Plywood, 200 milligrams per sq. ft., age of residue 3 days, two hours exposure): 83%
- mortality at 200 mg/sq ft (German cockroaches; read-out: % Mortality (48 hrs.), Plywood, 200 milligrams per sq. ft., age of residue 7 days, two hours exposure): 93%
- mortality at 200 mg/sq ft (German cockroaches; read-out: % Mortality (48 hrs.), Plywood, 200 milligrams per sq. ft., age of residue 14 days, two hours exposure): 85%
- mortality at 400 mg/sq ft (German cockroaches; read-out: % Mortality (48 hrs.), Plywood, 400 milligrams per sq. ft., age of residue 1 day, two hours exposure): 83%
- mortality at 400 mg/sq ft (German cockroaches; read-out: % Mortality (48 hrs.), Plywood, 400 milligrams per sq. ft., age of residue 3 days, two hours exposure): 83%
- mortality at 400 mg/sq ft (German cockroaches; read-out: % Mortality (48 hrs.), Plywood, 400 milligrams per sq. ft., age of residue 7 days, two hours exposure): 90%
- mortality at 400 mg/sq ft (German cockroaches; read-out: % Mortality (48 hrs.), Plywood, 400 milligrams per sq. ft., age of residue 14 days, two hours exposure): 73%
- mortality at 200 mg/sq ft (German cockroaches; read-out: % Mortality (48 hrs.), Vinyl, 200 milligrams per sq. ft., age of residue 1 day, two hours exposure): 100%
- mortality at 200 mg/sq ft (German cockroaches; read-out: % Mortality (48 hrs.), Vinyl, 200 milligrams per sq. ft., age of residue 3 days, two hours exposure): 95%
- mortality at 200 mg/sq ft (German cockroaches; read-out: % Mortality (48 hrs.), Vinyl, 200 milligrams per sq. ft., age of residue 7 days, two hours exposure): 70%
- mortality at 200 mg/sq ft (German cockroaches; read-out: % Mortality (48 hrs.), Vinyl, 200 milligrams per sq. ft., age of residue 14 days, two hours exposure): 20%
- mortality at 400 mg/sq ft (German cockroaches; read-out: % Mortality (48 hrs.), Vinyl, 400 milligrams per sq. ft., age of residue 1 day, two hours exposure): 100%
- mortality at 400 mg/sq ft (German cockroaches; read-out: % Mortality (48 hrs.), Vinyl, 400 milligrams per sq. ft., age of residue 3 days, two hours exposure): 100%
- mortality at 400 mg/sq ft (German cockroaches; read-out: % Mortality (48 hrs.), Vinyl, 400 milligrams per sq. ft., age of residue 7 days, two hours exposure): 100%
- mortality at 400 mg/sq ft (German cockroaches; read-out: % Mortality (48 hrs.), Vinyl, 400 milligrams per sq. ft., age of residue 14 days, two hours exposure): 83%
- % Mortality (days) (Adult stable flies): 100%
- % Mortality (days) (Adult mosquito): 100%
- % Mortality (days) [5]: 100%
- % Mortality (days) (Mexican Bean Beetle): 80%
- % Mortality (days) (Mite): 69%
- % Mortality (days) (Pea Aphid): 65%
- % Mortality (days) (Southern Armyworm): 70%
- % Mortality (days) [6]: 40%
- % Mortality (days) (German Cockroach): 30%
- % Mortality (days) (Adult rice weevils): 100%

SMILES: CC(C)=CC1C(C(=O)OC2COc3ccc(Cl)cc32)C1(C)C (racemic) [Example II, (±) cis,trans-5-chloro-3-coumaranyl chrysanthemate]
- % Mortality (24 hr.) (houseflies [2]; [7]): 56%
- % Mortality (24 hr.) (houseflies [2]; [9]): 99%
- mortality at 0.005 % strength (houseflies [2]; [8]): 5%

SMILES: COc1ccc2c(c1)C(OC(=O)C1C(C=C(C)C)C1(C)C)CO2 (racemic) [Example III, (±) cis, trans-5-methoxy-3-coumaranyl chrysanthemate]
- % Mortality (24 hr.) (houseflies [2]; [9]): 57%
- % Mortality (24 hr.) (houseflies [2]; 0.01 + 0.1 PB (piperonyl butoxide) % W/V): 100%
- mortality at 0.01 % strength (houseflies [2]; [8]): 0%

SMILES: CC1(C)C(C(=O)OC2COc3ccccc32)C1(C)C (stereo not drawn) [3-coumaranyl 2,2,3,3-tetramethylcyclopropanecarboxylate]
- housefly mortality compared with the chrysanthemates of Table 1 (houseflies [2]): equivalent results

SMILES: CC1(C)C(C=C2CCCC2)C1C(=O)OC1COc2ccccc21 (stereo not drawn) [3-coumaranyl 3-(2,2-tetramethyleneethenyl)-2-dimethylcyclopropanecarboxylate]
- housefly mortality compared with the chrysanthemates of Table 1 (houseflies [2]): equivalent results

SMILES: CC1(C)C(C(=O)OC2COc3ccc(Cl)cc32)C1(C)C (stereo not drawn) [5-chloro-3-coumaranyl 2,2,3,3-tetramethylcyclopropanecarboxylate]
- housefly mortality compared with the chrysanthemates of Table 1 (houseflies [2]): equivalent results

SMILES: CC1(C)C(C=C2CCCC2)C1C(=O)OC1COc2ccc(Cl)cc21 (stereo not drawn) [5-chloro-3-coumaranyl 3-(2,2-tetramethyleneethenyl)-2,2-dimethylcyclopropanecarboxylate]
- housefly mortality compared with the chrysanthemates of Table 1 (houseflies [2]): equivalent results

SMILES: COc1ccc2c(c1)C(OC(=O)C1C(C)(C)C1(C)C)CO2 (stereo not drawn) [5-methoxy-3-coumaranyl 2,2,3,3-tetramethylcyclopropanecarboxylate]
- housefly mortality compared with the chrysanthemates of Table 1 (houseflies [2]): equivalent results

SMILES: COc1ccc2c(c1)C(OC(=O)C1C(C=C3CCCC3)C1(C)C)CO2 (stereo not drawn) [5-methoxy-3-coumaranyl 3-(2,2-tetramethyleneethenyl)-2,2-dimethylcyclopropanecarboxylate]
- housefly mortality compared with the chrysanthemates of Table 1 (houseflies [2]): equivalent results

SMILES: CC1(C)C(C(=O)OC2COc3ccc([N+](=O)[O-])cc32)C1(C)C (stereo not drawn) [5-nitro-3-coumaranyl 2,2,3,3-tetramethylcyclopropanecarboxylate]
- housefly mortality compared with the chrysanthemates of Table 1 (houseflies [2]): equivalent results

SMILES: CC1(C)C(C=C2CCCC2)C1C(=O)OC1COc2ccc([N+](=O)[O-])cc21 (stereo not drawn) [5-nitro-3-coumaranyl 3-(2,2-tetramethyleneethenyl)-2-dimethylcyclopropanecarboxylate]
- housefly mortality compared with the chrysanthemates of Table 1 (houseflies [2]): equivalent results

SMILES: CC(C)=CC1C(C(=O)OC2COc3ccc([N+](=O)[O-])cc32)C1(C)C (stereo not drawn) [5-nitro-3-coumaranyl chrysanthemate]
- housefly mortality compared with the chrysanthemates of Table 1 (houseflies [2]): equivalent results
